Measured values published in patent publication US11944613B2, “CYP2J2 antagonists in the treatment of pain” (FRAUNHOFER-GESELLSCHAFT ZUR FÖRDERUNG DER ANGEWANDTEN …, priority 2014, dated 2024).
Counter-ions that a name gives are not always drawn.

Assays:
TRPV1 = TRPV1 (Mus musculus, UniProt Q704Y3); experiment: Calcium imaging: TRPV1 sensitization, double capsaicin stimulation of DRG neurons; conditions: inhibitor 10 μM, preincubation 1 h; 9,10-EpOME 1 μM
CYP3A4 [1] = target: T1, CYP3A4 (Homo sapiens, UniProt P08684); experiment: CYP3A4 P450-Glo luciferase assay (unselective control)
CYP2J2 = target: T2, CYP2J2 (Homo sapiens, UniProt P51589); experiment: CYP2J2 P450-Glo luciferase assay (FDA Approved Drug Library screen); conditions: read-out: Average inhibition CYP2J2 (%)
T2 sequence (P51589 1-502): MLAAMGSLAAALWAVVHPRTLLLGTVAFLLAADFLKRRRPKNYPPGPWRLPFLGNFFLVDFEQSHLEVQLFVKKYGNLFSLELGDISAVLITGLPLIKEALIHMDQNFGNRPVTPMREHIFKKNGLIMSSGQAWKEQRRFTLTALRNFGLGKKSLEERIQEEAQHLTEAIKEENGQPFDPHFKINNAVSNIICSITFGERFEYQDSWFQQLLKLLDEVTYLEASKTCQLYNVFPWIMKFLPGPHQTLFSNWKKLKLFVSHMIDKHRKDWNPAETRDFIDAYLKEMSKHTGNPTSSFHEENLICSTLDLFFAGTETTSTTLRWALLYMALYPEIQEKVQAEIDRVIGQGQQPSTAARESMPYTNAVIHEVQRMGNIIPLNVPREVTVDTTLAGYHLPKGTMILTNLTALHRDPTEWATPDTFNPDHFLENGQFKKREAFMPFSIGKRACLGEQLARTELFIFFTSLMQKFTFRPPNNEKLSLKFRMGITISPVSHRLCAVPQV

DRG neurons = experiment: Calcium imaging: 9,10-EpOME-evoked calcium transients in DRG neurons; format: cell-based, mouse; conditions: 9,10-EpOME 10 μM, 30 s; antagonist pre-incubated two minutes; AMG 9810 1 μM, HC-030031 20 μM
Description: FIG. 2: Direct effects of 9,10-EpOME on DRG-neurons. (a) Application of 9,10-EpOME [10 μM, 30 s] causes calcium transients on DRG neurons which respond to high potassium (50 mM KCl, 30 s). A representative trace is shown. (b) Dose response relationship of 9,10-EpOME dependent calcium increases in DRG neurons related to the number of responding neurons Data represents the mean ±SEM of five measurements per concentration. (c) and (d) Calcium transients caused by 9,10-EpOME [10 μM, 30 s] can be disrupted using calcium-free medium containing EGTA (2 mM) washed in 2 minutes before and after 9,10-EpOME stimulation. Data represents the mean ±SEM of 24 (calcium-free) or 16 (control) neurons. (e) and (f) Calcium transients of 9,10-EpOME [10 μM, 30 s] can be blocked by a selective TRPV1 antagonist (AMG 9810, 1 μM) but not by a selective TRPA1 antagonist (HC-030031, 20 μM) washed in for two minutes prior to the second 9,10-EpOME stimulation. Data represents the mean ±SEM of 16 (control), 31 (AMG 9810) or 18 (HC-030031) neurons; **p<0.01, student's t-test.
Next, the inventors characterized 9,10-EpOME concerning its effects on DRG-neurons in calcium imaging experiments. […]

CYP3A4 [2] = target: T1, CYP3A4; experiment: in vitro
wild type BL/6N mice = experiment: Thermal and mechanical thresholds after intraplantar or intrathecal 9,10-EpOME; format: in vivo, mouse
Description: FIG. 5: Intraplantar or intrathecal injection of 9,10-EpOME reduces pain thresholds and sensitizes capsaicin induced mechanical thresholds in wild type mice. (a) and (b) C57B1/6N mice received an intraplantar injection of 9,10-EpOME (10 μM) or vehicle (DMSO 0.3% (v/v) in saline). Thermal (a) or mechanical (b) thresholds were monitored for 5 h post injection. Data represents mean ±SEM from eight mice. (c) and (d) Wild type BL/6N mice were injected intrathecally with 9,10-EpOME (10 μM) or vehicle (DMSO 0.3% (v/v) in saline). Thermal (c) or mechanical (d) thresholds were monitored for 2 h (thermal) or 3 h (mechanical) post injection with 15 minute intervals for the first hour and 30 minute intervals for the second hour. Data represents mean ±SEM from eight mice. Die Abbildungen sind nicht mitgeliefert
For the determination of mechanical allodynia or thermal hypersensitivity, mice were kept in test cages on an elevated grid for at least 2 h to allow accommodation. Baseline measurements were performed using a Dynamic Plantar Aesthesiometer or a Hargreaves Apparatus (Ugo Basile, Comerio, VA, Italy) detecting withdrawal latency of the hind paws after mechanical stimulation. For the assessment of the mechanical thresholds, the steel rod was pushed against the mid-plantar hind paw with linear ascending force (0-5 g over 10 seconds, increasing 0.5 g/s) until a fast withdrawal response occurred. Slow movements of the paw were not counted. Paw withdrawal latencies (PWL) were determined in seconds (s) ±0.1 with a cut-off time of 20 s. The non-injected and injected paws were measured alternately in intervals of 5-10 min. For determination of thermal thresholds, mice were kept in test cages on a warmed glass plate (32° C.) for at least 2 h on the first day to allow accommodation. Then, the mid-plantar region of the paws was stimulated with a radiant heat device, consisting of a high intensity projector lamp, until withdrawal occurred. The non-injected and injected paws were measured alternately in intervals of 5-10 min. For all behavioral tests the investigator was blinded for treatment or genotype of the mice.
Treatments: For peripheral injections, 20 μl of 9,10-EpOME [5 μM] (Cayman, Ann Arbor, MI, USA) were injected subcutaneously (s.c.) in the mid-plantar area of the hind paw. […]
The inventors then tested the Galphas-coupled prostanoid receptors for their potential involvement in 9,10-EpOME dependent TRPV1 sensitization in calcium imaging experiments. […] To characterize in vivo effects of 9,10-EpOME, the inventors injected the lipid in hind paws of wild type BL/6N mice and measured the thermal (FIG. 5A) and mechanical thresholds (FIG. 5B) up to 5 h post injection. […] The inventors then injected 9,10-EpOME intrathecally and measured thermal and mechanical thresholds in short time intervals. […]

[3] = system: lamina II neurons of spinal cord slices; experiment: sEPSC recordings in lamina II neurons of spinal cord slices; format: cell-based
Description: (d) Frequency of sEPSCs. […] (E) Amplitude of sEPSCs. […] To confirm the effect of TRPV1 sensitization by 9,10-EpOME with electrophysiological means, the inventors measured sEPSCs from lamina II neurons of spinal cord slices using two capsaicin stimulations [1 μM] and incubating the cells prior to the second capsaicin stimulus with 9,10-EpOME [1 μM] (FIG. 3C). […] In combination with capsaicin, however, the sEPSC frequency was strongly potentiated (FIG. 3D). However, no difference in the amplitude of sEPSCs could be observed with either 9,10-EpOME, […] or the combination of both substances (FIG. 3E).

CYP2J6 = target: T3, CYP2J6 (Mus musculus, UniProt O54750); experiment: LC-MS/MS epoxylipid levels in tissues of paclitaxel treated mice after terfenadine; format: in vivo
T3 construct: the inventors dissected the sciatic nerve, DRGs and the dorsal spinal cord and quantified epoxylipids in these tissues; from tissue; host or cells: sciatic nerve, DRGs, dorsal spinal cord and plasma of paclitaxel-treated C57BL/6N mice
T3 sequence (O54750 1-501): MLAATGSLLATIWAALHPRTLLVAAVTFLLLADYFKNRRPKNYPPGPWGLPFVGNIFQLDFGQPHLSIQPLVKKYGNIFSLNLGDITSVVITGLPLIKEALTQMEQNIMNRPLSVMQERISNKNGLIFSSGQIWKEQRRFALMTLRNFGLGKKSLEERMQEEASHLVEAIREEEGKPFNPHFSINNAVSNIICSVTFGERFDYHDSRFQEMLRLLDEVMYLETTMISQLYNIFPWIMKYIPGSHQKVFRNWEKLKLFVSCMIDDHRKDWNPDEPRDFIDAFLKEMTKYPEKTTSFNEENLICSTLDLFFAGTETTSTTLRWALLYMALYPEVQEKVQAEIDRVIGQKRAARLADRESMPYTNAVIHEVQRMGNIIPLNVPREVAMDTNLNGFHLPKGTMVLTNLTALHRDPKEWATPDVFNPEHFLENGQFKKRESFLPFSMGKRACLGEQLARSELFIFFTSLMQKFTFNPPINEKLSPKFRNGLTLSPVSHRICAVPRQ
Description: (b) Remaining concentrations of all measured epoxylipids and dihydro-metabolites (9,10-EpOME, 12,13-EpOME, 9,10-DiHOME, 12,13-DiHOME and 14,15-EET) in sciatic nerve, DRGs, dorsal horn of the spinal cord and plasma after administration of terfenadine (1 mg·kg-1).
Sample extraction and standards: Sample extraction was performed as described previously. Briefly, stock solutions with 2500 ng/ml of all analytes were prepared in methanol. Working standards were obtained by further dilution with a concentration range of 0.1-250 ng/ml for EETs, EpOMEs and DiHOMEs and HODEs Sample extraction was performed with liquid-liquid-extraction. Therefore tissue or cell culture medium was extracted twice with 600 μl ethyl acetate. The combined organic phases were removed at a temperature of 45° C. under a gentle stream of nitrogen. The residues were reconstituted with 50 μl of methanol/water/(50:50, v/v), centrifuged for 2 min at 10,000×g and then transferred to glass vials (Macherey-Nagel, Düren, Germany) prior to injection into the LC-MS/MS system.
Instrumentation for measuring epoxylipids and HODEs: The LC-MS/MS system consisted of an API 4000 triple quadrupole mass spectrometer (Applied Biosystems, Darmstadt, Germany), equipped with a Turbo-V-source operating in negative ESI mode, an Agilent 1100 binary HPLC pump and degasser (Agilent, Waldbronn, Germany) and an HTC Pal autosampler (Chromtech, Idstein, Germany) fitted with a 25 μL LEAP syringe (Axel Semrau GmbH, Sprockhövel, Germany). High purity nitrogen for the mass spectrometer was produced by a NGM 22-LC-MS nitrogen generator (cmc Instruments, Eschborn, Germany). […] Quantification was performed with Analyst Software V 1.4.2 (Applied Biosystems, Darmstadt, Germany) employing the internal standard method (isotope-dilution mass spectrometry). Ratios of analyte peak area and internal standard area (y-axis) were plotted against concentration (x-axis) and calibration curves were calculated by least square regression with 1/concentration2 weighting.

[4] = system: paclitaxel-induced CIPNP in mice
Description: (a) Levels of 9,10-EpOME shown in % of control determined by LC-MS/MS in sciatic nerves, DRGs and the dorsal horn of the spinal cord eight days after treatment with paclitaxel (6 mg·kg-1 i.p. and 1 mg·kg-1 terfenadine (grey) or vehicle (2% DMSO v/v, black)) Data represents mean ±SEM from the DRGs of five mice per group; *p<0.05, **p<0.01, student's t-test. (b) Remaining concentrations of all measured epoxylipids and dihydro-metabolites (9,10-EpOME, 12,13-EpOME, 9,10-DiHOME, 12,13-DiHOME and 14,15-EET) in sciatic nerve, DRGs, dorsal horn of the spinal cord and plasma after administration of terfenadine (1 mg·kg-1). (c) Mechanical thresholds of mice treated with paclitaxel for eight days (6 mg·kg-1 i.p.) that received an intravenous injection of terfenadine (1 or 2 mg kg-1) or vehicle (DMSO 2.5 or 5% (v/v)). The mechanical thresholds were monitored up to 5 h after injection of terfenadine or vehicle. Data represent mean ±SEM from 8-9 mice per group; #, *p<0.05, two-way ANOVA with Bonferroni post hoc test (*1 mg kg-1, #2 mg kg-1 terfenadine). […] Data represent mean ±SEM from 6-9 mice per group.
Paclitaxel was solved in Cremophor EL/Ethanol 1:1 and diluted in saline. The dose for intraperitoneal injection was set to 6 mg/kg as described previously.
For the determination of mechanical allodynia or thermal hypersensitivity, mice were kept in test cages on an elevated grid for at least 2 h to allow accommodation. Baseline measurements were performed using a Dynamic Plantar Aesthesiometer or a Hargreaves Apparatus (Ugo Basile, Comerio, VA, Italy) detecting withdrawal latency of the hind paws after mechanical stimulation. […] Slow movements of the paw were not counted. Paw withdrawal latencies (PWL) were determined in seconds (s) ±0.1 with a cut-off time of 20 s. The non-injected and injected paws were measured alternately in intervals of 5-10 min. […] The non-injected and injected paws were measured alternately in intervals of 5-10 min. […]

[5] = intraplantar injection in hind paws

T1 sequence (P08684 whole entry): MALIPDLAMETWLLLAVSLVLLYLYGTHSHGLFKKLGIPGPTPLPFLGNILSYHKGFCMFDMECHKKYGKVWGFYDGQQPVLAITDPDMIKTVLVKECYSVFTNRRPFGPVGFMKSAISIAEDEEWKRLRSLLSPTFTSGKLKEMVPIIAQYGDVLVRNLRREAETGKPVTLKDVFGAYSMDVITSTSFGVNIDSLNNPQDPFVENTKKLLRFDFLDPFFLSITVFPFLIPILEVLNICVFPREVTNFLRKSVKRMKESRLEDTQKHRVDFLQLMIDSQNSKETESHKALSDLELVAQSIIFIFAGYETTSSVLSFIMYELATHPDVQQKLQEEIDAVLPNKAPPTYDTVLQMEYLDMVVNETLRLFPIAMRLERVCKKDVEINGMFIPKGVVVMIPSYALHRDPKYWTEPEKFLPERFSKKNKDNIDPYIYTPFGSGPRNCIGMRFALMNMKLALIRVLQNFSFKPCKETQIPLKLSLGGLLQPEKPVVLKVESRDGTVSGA
Sequence of TRPV1 (Q704Y3 whole entry): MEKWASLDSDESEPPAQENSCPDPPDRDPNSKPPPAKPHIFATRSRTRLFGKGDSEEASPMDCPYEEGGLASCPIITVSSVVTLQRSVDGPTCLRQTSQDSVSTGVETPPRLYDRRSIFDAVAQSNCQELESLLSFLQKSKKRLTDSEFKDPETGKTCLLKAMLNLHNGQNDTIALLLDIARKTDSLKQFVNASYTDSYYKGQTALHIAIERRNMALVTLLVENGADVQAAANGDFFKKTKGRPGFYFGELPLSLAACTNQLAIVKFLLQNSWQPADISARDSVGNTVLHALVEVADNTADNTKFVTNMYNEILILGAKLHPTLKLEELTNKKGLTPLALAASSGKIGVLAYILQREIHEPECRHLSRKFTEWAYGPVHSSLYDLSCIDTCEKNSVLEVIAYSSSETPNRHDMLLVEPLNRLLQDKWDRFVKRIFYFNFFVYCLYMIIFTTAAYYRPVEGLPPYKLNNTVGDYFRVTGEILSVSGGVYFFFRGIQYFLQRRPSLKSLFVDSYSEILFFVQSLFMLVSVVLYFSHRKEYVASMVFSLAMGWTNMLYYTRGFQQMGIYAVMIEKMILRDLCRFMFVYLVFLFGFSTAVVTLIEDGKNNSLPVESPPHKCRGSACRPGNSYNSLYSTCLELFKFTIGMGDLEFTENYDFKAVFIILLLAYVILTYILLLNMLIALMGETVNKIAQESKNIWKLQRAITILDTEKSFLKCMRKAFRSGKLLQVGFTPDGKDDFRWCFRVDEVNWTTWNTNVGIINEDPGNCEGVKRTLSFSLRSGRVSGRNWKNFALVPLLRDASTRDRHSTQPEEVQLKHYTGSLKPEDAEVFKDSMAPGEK

| Structure (SMILES) | inhibition at 10 µM (CYP2J2) | inhibition at 30 min, 10 μM (CYP3A4 [2]) | also measured |
| --- | --- | --- | --- |
| Cl.Cl.O=S(=O)(NCCNC/C=C/c1ccc(Br)cc1)c1cccc2cnccc12 [H89 dihydrochloride] | – | – | effect of kinase inhibitor on 9,10-EpOME-evoked TRPV1 sensitization (TRPV1): significant reduction |
| CC(COc1ccccc1)N(CCCl)Cc1ccccc1 (stereo not shown) [c089, Phenoxybenzamine•HCl] | 75% | – | inhibition at 30 min, 10 μM (CYP3A4 [1]): 17.9% |
| CC(C)c1ccc(NC(=O)Cn2cnc3c2c(=O)n(C)c(=O)n3C)cc1 [HC-030031] | – | – | block of the second 9,10-EpOME-evoked calcium transient (DRG neurons): but not the TRPA1 antagonist HC-030031 could block |
| CC(C)(C)c1ccc(/C=C/C(=O)Nc2ccc3c(c2)OCCO3)cc1 [AMG 9810] | – | – | block of the second 9,10-EpOME-evoked calcium transient (DRG neurons): could block |
| CN(C)CCCn1cc(C2=C(c3c[nH]c4ccccc34)C(=O)NC2=O)c2ccccc21 | – | – | effect of kinase inhibitor on 9,10-EpOME-evoked TRPV1 sensitization (TRPV1): did not have any effect |
| CCCCC/C=C\CC1OC1CCCCCCCC(=O)O (stereo not shown) [9,10-EpOME, 9,10-epoxy-12Z-octadecenoic acid] | – | – | duration of significant reduction of mechanical thresholds (wild type BL/6N mice; [5]): 2 h; duration of significant reduction of thermal thresholds (wild type BL/6N mice; [5]): 1 h; duration of decrease of mechanical thresholds (wild type BL/6N mice; intrathecal injection): up to 1.5 h; thermal thresholds (wild type BL/6N mice; intrathecal injection, 30 minutes after i.th. injection): significant but rather weak reduction |
| COc1cc(CNC(=O)CCCC/C=C/C(C)C)ccc1O [capsaicin] | – | – | frequency of sEPSCs, substance alone ([3]; 1 mM as printed in legend, baseline 6.9±0.4 Hz, n=5 neurons): 13.7±0.4 Hz; amplitude of sEPSCs ([3]; n=5 neurons/group): no significant effects |
| CC(C)/N=c1\cc2n(-c3ccc(Cl)cc3)c3ccccc3nc-2cc1Nc1ccc(Cl)cc1 [c516, Clofazimine] | 79.1% | -82.9% | – |
| CC(C)(C)c1ccc(C(O)CCCN2CCC(C(O)(c3ccccc3)c3ccccc3)CC2)cc1 (stereo not shown) [Terfenadine] | – | – | remaining concentrations of all measured epoxylipids in DRGs, spinal dorsal horn and plasma (CYP2J6; 1 mg·kg-1 i.v.): reduced significantly; 9,10-EpOME concentrations in sciatic nerve, DRGs and dorsal spinal cord (CYP2J6; 1 mg·kg-1 i.v., two hours, eight days after paclitaxel): significant reduction; levels of epoxylipids reduced to (CYP2J6; terfenadine treatment): about 50%; duration of increase in mechanical thresholds ([4]; 1 or 2 mg·kg-1 i.v., eight days after paclitaxel): 2 h; difference between the two doses in mechanical thresholds ([4]; 1 versus 2 mg·kg-1 i.v.): no significant differences; mechanical thresholds of paclitaxel treated mice ([4]; terfenadine 1 or 2 mg·kg-1 i.v., loratadine 1 mg kg-1 i.v., eight days after paclitaxel): significant increase |

Continued, in another order:

| inhibition at 10 µM (CYP2J2) | inhibition at 30 min, 10 μM (CYP3A4 [2]) | Structure (SMILES) | also measured |
| --- | --- | --- | --- |
| 64% | 5.1% | C#C[C@]1(O)CC[C@H]2[C@@H]3CCC4=CC(=O)CC[C@@H]4[C@H]3CC[C@@]21CC [c314, Levonorgestrel] | – |
| 78.2% | -4.3% | CCC(=O)O[C@]1(C(=O)CCl)[C@@H](C)C[C@H]2[C@@H]3CCC4=CC(=O)C=C[C@]4(C)[C@@]3(F)[C@@H](O)C[C@@]21C [c146, Clobetasol Propionate] | – |
| 76.8% | -18.5% | CC1(C)O[C@@H]2C[C@H]3[C@@H]4CCC5=CC(=O)CC[C@]5(C)[C@@]4(F)[C@@H](O)C[C@]3(C)[C@]2(C(=O)CCl)O1 [c440, Halcinonide] | – |
| 71.5% | 17.4% | Cc1cccc(CN2CCN(C(c3ccccc3)c3ccc(Cl)cc3)CC2)c1 (stereo not shown) [c608, Meclizine Dihydrochloride] | – |
| 78% | -26.2% | CC(C)OC(=O)C(C)(C)Oc1ccc(C(=O)c2ccc(Cl)cc2)cc1 [c246, Fenofibrate] | – |
| 81.8% | 14% | Cc1[nH]cnc1CN1CCc2c(c3ccccc3n2C)C1=O [c595, Alosetron•HCl] | – |
| 84.4% | 12.1% | C[C@]12CC[C@@H]3c4ccc(O)cc4CC[C@H]3[C@@H]1CC[C@@H]2O [c054, Estradiol] | – |
